The values below come from patent US11591326B2, “Inhibitors of protein arginine methyltransferase 5 (PRMT5), pharmaceutical products thereof, and methods thereof” (PHARMABLOCK SCIENCES (NANJING), INC., priority 2018, dated 2023).

In the first experiment the test system is Mantle Cell Lymphoma Z-138 cell. The experiment can be described thus: Cell proliferation inhibition, Z-138 (CCK8). Type of experiment: cell-based. The following applies: Homo sapiens, Z-138, 96 h, Z-138, incubated 4 days. An excerpt: (§1) Materials and Cell Lines: Z-138, U251, and MIA PaCa2 cells were purchased from ATCC (American Type Culture Collection, Manassas, Va.) and Chinese Academy of Science (Shanghai, China). Iscove's Modified Dulbecco's Medium (IMDM), Dulbecco's Modified Eagle Medium (DMEM), penicillin-streptomycin, heat inactivated fetal bovine serum (FBS), and horse serum was purchased from ThermoFisher, Waltham, Mass., USA. Corning 96- and 384-well cell culture plates were purchased from ThermoFisher, Waltham, Mass., USA. Cell-Titer Glo® was purchased from Promega Corporation, Madison, Wis., USA.
In order to evaluate the inhibitory ability of compounds synthesized on the proliferation of the Mantle Cell Lymphoma Z-138 cell, exponentially growing cells were seeded in the media of IMDM with 10% horse serum and 1% penicillin-streptomycin at a concentration of 30000 cells/ml in a 96-well plate with 100 ul per well and incubated overnight at 37° C., 5% CO2 incubator. Compounds were prepared as 10-point, 3-fold serial dilutions in DMSO, beginning at 6 mM. 1 μl of DMSO solutions from the compound stock plates were added to 99 ul of cell culture media (final top concentration of compound in the assay was 30 uM and the final concentration of DMSO was 0.5%). 100 μL of compound solutions in media were added to each well of Z-138 cell plates. After adding compound solutions, assay plates were incubated for 4 days at 37° C., 5% CO2. Cell viability was measured using the Cell Counting Kit-8 (CCK8) obtained from the Beyotime Biotehnology, Shanghai, China. 20 ul of CCK8 reagent was added to each well of the Z-138 assay plate which was incubated at 37° C. for 2 hours. O.D. at 450 nm was read with the FlexStation 3 microplate reader (Molecular Devices, Sunnyvale, Calif. 94089 USA). The concentrations of compounds inhibiting cell viability by 50% (IC50 values) were determined using a sigmoidal dose-response model (variable slopes, four parameters) in Prism 7 (La Jolla, Calif.).
In the case of `CC(=O)N1CCC(Nc2cc(F)c3c(c2)C(=O)N(C[C@H](O)CN2CCc4ccccc4C2)CCO3)CC1` [Compound 2a, (R)-7-((1-acetylpiperidin-4-yl)amino)-4-(3-(3,4-dihydroisoquinolin-2(1H)-yl)-2-hydroxypropyl)-9-fluoro-3,4-dihydrobenzo[f][1,4]oxazepin-5(2H)-one], the half-inhibitory concentration (IC50) amounted to 0.041 µM.

The next experiment relates to Pancreatic Carcinoma MIA PaCa-2 cell. In words: Cell proliferation inhibition, MIA PaCa-2 (CellTiter-Glo). The conditions noted are these: Homo sapiens, MIA PaCa-2, incubated for 12 days (read after 8 or 12 days), read-out: IC50 (μM) MIA PaCa2. Type of experiment: cell-based.
From the text: as §1
In order to evaluate the inhibitory ability of compounds synthesized on the proliferation of the Pancreatic Carcinoma MIA PaCa-2 cell, exponentially growing cells were seeded in the culture media of DMEM with 10% FBS, 2.5% horse serum, 1 mM of Sodium Pyruvate and 1% penicillin-streptomycin at a concentration of 2500 cells/ml in a 384-well plate with 20 ul per well and incubated overnight at 37° C., 5% CO2 incubator. Compounds were prepared as 10-point, 3-fold serial dilutions in DMSO, beginning at 6 mM. 1 μl of DMSO solutions from the compound stock plates were added to 99 ul of cell media (final top concentration of compound in the assay was 30 uM and the final concentration of DMSO was 0.5%). 20 μL of compound solutions in media were added to each well of MIA PaCa-2 cell plates. After adding compound solutions, assay plates were incubated for 12 days at 37° C., 5% CO2. During this incubation period, cell media was changed every 4 days. After removing old media from cell plates, 40 ul of media with testing compounds dissolved, which were prepared by adding 1 ul of compound DMSO serial solutions to 199 ul of cell media, were added to the assay plates with the same layout as they were initially prepared. After 8 or 12 days, cell viability was measured using the CellTiter-Glo assay kit from Promega (Madison, Wis., USA) by quantitating the ATP present in the cell cultures. 20 μL of CellTiter-Glo reagent was added to each well of the cell plates. Luminescence was read after 10 minute of incubation with the Envision multiple plate reader from PerkinElmer (Waltham, Mass., USA). The concentrations of compounds inhibiting cell viability by 50% (IC50 values) were determined using a sigmoidal dose-response model (variable slopes, four parameters) in Prism 7 (La Jolla, Calif., USA).
Consider `CC(=O)N1CCC(Nc2cc(F)c3c(c2)C(=O)N(C[C@H](O)CN2CCc4ccccc4C2)CCO3)CC1` [Compound 2a, (R)-7-((1-acetylpiperidin-4-yl)amino)-4-(3-(3,4-dihydroisoquinolin-2(1H)-yl)-2-hydroxypropyl)-9-fluoro-3,4-dihydrobenzo[f][1,4]oxazepin-5(2H)-one], for which the 50% inhibitory concentration (IC50) amounted to 0.024 µM.

The target in a further experiment is Human recombinant PRMT5 in complex with human recombinant MEP50 (Homo sapiens (Human), UniProt O14744). The experiment can be described thus: PRMT5/MEP50 AlphaLISA enzyme inhibitory assay. Format: biochemical. The following applies: PRMT5/MEP50 25 nM, SAM 10 μM, Biotin-H4 peptide 30 nM. An excerpt: Human recombinant PRMT5 in complex with human recombinant MEP50, co-expressed in an insect cell/baculovirus expression system was purchased from Reaction Biology (Malvern, Pa.). […] Anti-H4R3-Me AlphaLISA acceptor beads and Streptavidin labeled AlphaLISA donor beads were obtained from PerkinElmer (Waltham, Mass.). S-adenosylmethionine (SAM), Tween20, dimethylsulfoxide (DMSO), and Tris buffer were obtained from Sigma at the highest level of purity available.
Human recombinant PRMT5 in complex with human recombinant MEP50, sequence (O14744 whole entry): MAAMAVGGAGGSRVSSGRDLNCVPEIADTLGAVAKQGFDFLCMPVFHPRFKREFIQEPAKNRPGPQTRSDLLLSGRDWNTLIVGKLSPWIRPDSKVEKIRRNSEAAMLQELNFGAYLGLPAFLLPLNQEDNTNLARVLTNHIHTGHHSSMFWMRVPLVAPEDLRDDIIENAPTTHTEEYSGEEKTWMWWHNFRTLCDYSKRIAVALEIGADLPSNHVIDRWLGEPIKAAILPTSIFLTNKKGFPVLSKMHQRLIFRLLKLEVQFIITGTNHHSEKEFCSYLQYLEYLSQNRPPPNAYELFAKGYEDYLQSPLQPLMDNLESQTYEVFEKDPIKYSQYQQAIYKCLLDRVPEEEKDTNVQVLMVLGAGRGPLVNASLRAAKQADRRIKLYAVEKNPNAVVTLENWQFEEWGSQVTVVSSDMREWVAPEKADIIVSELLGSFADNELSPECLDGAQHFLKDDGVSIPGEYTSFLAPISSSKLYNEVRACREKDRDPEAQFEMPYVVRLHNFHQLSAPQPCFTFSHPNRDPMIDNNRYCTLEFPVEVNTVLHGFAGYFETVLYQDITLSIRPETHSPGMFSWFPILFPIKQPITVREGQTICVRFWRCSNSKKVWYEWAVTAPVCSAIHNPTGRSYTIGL
Human recombinant PRMT5 in complex with human recombinant MEP50, sequence (Q9BQA1 whole entry partner): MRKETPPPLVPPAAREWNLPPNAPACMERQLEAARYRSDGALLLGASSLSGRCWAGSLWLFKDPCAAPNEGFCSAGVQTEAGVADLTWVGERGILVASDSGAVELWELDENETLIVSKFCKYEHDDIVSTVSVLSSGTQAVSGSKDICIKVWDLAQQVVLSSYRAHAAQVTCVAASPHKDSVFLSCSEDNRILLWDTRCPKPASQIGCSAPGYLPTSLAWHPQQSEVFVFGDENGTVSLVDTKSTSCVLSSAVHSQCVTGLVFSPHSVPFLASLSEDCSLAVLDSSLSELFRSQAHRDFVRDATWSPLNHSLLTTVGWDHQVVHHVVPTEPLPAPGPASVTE
General Procedure for PRMT5/MEP50 AlphaLISA Enzyme Inhibitory Assays: Assays were performed in the buffer consisting of 50 mM Tris, pH 8.5, 5 mM MgCl2, 50 mM NaCl with 0.01% Tween20 and 1 mM DTT added right before the assay. 2.5 μL of compound solution in the assay buffer with 4% DMSO and 5 μL of PRMT5/MRP50 complex/SAM mixture solution in the assay buffer which was pre-incubated for 30 minutes were added into a white low volume 384 well microtiter plate. This mixture solution was incubated for 15 minutes with gentle shaking at room temperature. Methyl transfer reaction was initiated by adding 2.5 μL of Biotin-H4 (1-21) peptide substrate solution in the assay buffer. Final concentrations of PRMT5/MEP50, SAM, Biotin-H4 peptide substrate, and DMSO were 25 nM, 10 μM, 30 nM, and 1%, respectively. The reaction was allowed to perform for 120 minutes in dark with gentle shaking at room temperature after which 5 μL of Anti-H4R3-Me AlphaLISA acceptor beads in detection buffer from the manufacturer was added into the reaction mixture followed by incubation for 60 minutes. 10 μL of Streptavidin labeled AlphaLISA donor beads in detection buffer was added into the mixture followed by 30 minute incubation. Final acceptor and donor beads concentrations were 10 μg/mL. Plates were read on an Envision multimode plate reader from PerkinElmer (Waltham Mass., USA) with an excitation wavelength of 680 nm and emission wavelength of 615 nm. IC50 values of inhibitors were obtained by fitting the fluorescence intensity vs inhibitor concentrations in a sigmoidal dose-response curve (variable slopes, four parameters) using Prism 7 (La Jolla, Calif.).
Consider `CC(=O)N1CCC(Nc2cc(F)c3c(c2)C(=O)N(C[C@H](O)CN2CCc4ccccc4C2)CCO3)CC1` [Compound 2a, (R)-7-((1-acetylpiperidin-4-yl)amino)-4-(3-(3,4-dihydroisoquinolin-2(1H)-yl)-2-hydroxypropyl)-9-fluoro-3,4-dihydrobenzo[f][1,4]oxazepin-5(2H)-one], for which the IC50 was determined as 57 nM.

`CC(=O)N1CCC(Nc2cc3c(cc2F)OCCN(C[C@H](O)CN2CCc4ccccc4C2)C3=O)CC1` [Compound 17a, (R)-7-((1-acetylpiperidin-4-yl)amino)-4-(3-(3,4-dihydroisoquinolin-2(1H)-yl)-2-hydroxypropyl)-8-fluoro-3,4-dihydrobenzo[f][1,4]oxazepin-5(2H)-one]: the IC50 was 248 nM.

Turning to `CC(=O)N1CCC(Nc2cc(F)c3c(c2)C(=O)N(C[C@@H](O)CN2CCc4ccccc4C2)CCO3)CC1` [Compound 2b, (S)-7-((1-acetylpiperidin-4-yl)amino)-4-(3-(3,4-dihydroisoquinolin-2(1H)-yl)-2-hydroxypropyl)-9-fluoro-3,4-dihydrobenzo[f][1,4]oxazepin-5(2H)-one], the IC50 was determined as 159 nM.

Take `O=C1c2cc(Nc3ccnnc3)ccc2C2(CC2)CN1CC(O)CN1CCc2ccccc2C1` (stereo not drawn) [Compound 35, 2′-(3-(3,4-dihydroisoquinolin-2(1H)-yl)-2-hydroxypropyl)-7′-(pyridazin-4-ylamino)-2′,3′-dihydro-1′H-spiro[cyclopropane-1,4′-isoquinolin]-1′-one]: the IC50 was found to be 6.1 nM.

`CN1C(=O)CN(CC(O)CN2CCc3ccccc3C2)C(=O)c2cc(Nc3ccnnc3)ccc21` (stereo not drawn) [Compound 44, 4-(3-(3,4-dihydroisoquinolin-2(1H)-yl)-2-hydroxypropyl)-1-methyl-7-(pyridazin-4-ylamino)-3,4-dihydro-1H-benzo[e][1,4]diazepine-2,5-dione]: the IC50 was determined as 6.9 nM.

With `CC(=O)N1CCC(Nc2ccc3c(c2F)C(=O)N(CC(O)CN2CCc4ccccc4C2)CCO3)CC1` (stereo not drawn) [Compound 46, 7-((1-acetylpiperidin-4-yl)amino)-4-(3-(3,4-dihydroisoquinolin-2(1H)-yl)-2-hydroxypropyl)-6-fluoro-3,4-dihydrobenzo[f][1,4]oxazepin-5(2H)-one], the IC50 was 138 nM.

Take `Cc1nnc(Nc2ccc3c(c2)C(=O)N(C[C@H](O)CN2CCc4ccccc4C2)CCO3)o1` [Compound 42, (R)-4-(3-(3,4-dihydroisoquinolin-2(1H)-yl)-2-hydroxypropyl)-7-((5-methyl-1,3,4-oxadiazol-2-yl)amino)-3,4-dihydrobenzo[f][1,4]oxazepin-5(2H)-one]: the concentration for half-maximal inhibition (IC50) came to 20.2 nM.

Consider `O=c1c2cc(Nc3ccnnc3)ccc2ncn1CC(O)CN1CCc2ccccc2C1` (stereo not drawn) [Compound 31, 3-(3-(3,4-dihydroisoquinolin-2(1H)-yl)-2-hydroxypropyl)-6-(pyridazin-4-ylamino)quinazolin-4(3H)-one], for which the IC50 amounted to 179 nM.

Turning to `CC(=O)N1CCC(Nc2ccc3c(c2)C(=O)N(C[C@H](O)CN2CCc4ccccc4C2)C2CC3C2)CC1` [Compound 57a, (R)-8-((1-acetylpiperidin-4-yl)amino)-2-(3-(3,4-dihydroisoquinolin-2(1H)-yl)-2-hydroxypropyl)-2,3,4,5-tetrahydro-1H-3,5-methanobenzo[c]azepin-1-one], the IC50 is 92.5 nM.

As to `O=c1c2cc(NC3COC3)ccc2ccn1CC(O)CN1CCc2ccccc2C1` (stereo not drawn) [Compound 4, 2-(3-(3,4-dihydroisoquinolin-2(1H)-yl)-2-hydroxypropyl)-7-(oxetan-3-ylamino)isoquinolin-1(2H)-one], the IC50 turned out to be 303 nM.

Take `O=C1c2cc(Nc3ccnnc3)ncc2OCCN1CC(O)CN1CCc2ccccc2C1` (stereo not drawn) [Compound 48, 4-(3-(3,4-dihydroisoquinolin-2(1H)-yl)-2-hydroxypropyl)-7-(pyridazin-4-ylamino)-3,4-dihydropyrido[4,3-f][1,4]oxazepin-5(2H)-one]: the half-maximal inhibitory concentration (IC50) was 15.8 nM.

In the case of `O=C1c2cc(Nc3ccnnc3)c(F)cc2OCCN1CC(O)CN1CCc2ccccc2C1` (stereo not drawn) [Compound 50, 4-(3-(3,4-dihydroisoquinolin-2(1H)-yl)-2-hydroxypropyl)-8-fluoro-7-(pyridazin-4-ylamino)-3,4-dihydrobenzo[f][1,4]oxazepin-5(2H)-one], the 50% inhibitory concentration (IC50) worked out at 7.7 nM.

Regarding `CC(=O)N1CCC(Nc2ccc3c(c2)C(=O)N(C[C@@H](O)CN2CCc4ccccc4C2)CC3)CC1` [Compound 24b, (S)-7-((1-acetylpiperidin-4-yl)amino)-2-(3-(3,4-dihydroisoquinolin-2(1H)-yl)-2-hydroxypropyl)-3,4-dihydroisoquinolin-1(2H)-one], the IC50 amounted to 19 nM.

For orientation: IC50 means the concentration that gives 50% inhibition.
